According to ChEMBL document CHEMBL4145541, “Tricyclic pyrazolo[1,5-d][1,4]benzoxazepin-5(6H)-one scaffold derivatives: Synthesis and biological evaluation as selective BuChE inhibitors” (Eur J Med Chem, 2018):
Active and inactive are the calls of the source. The calls are words filed in the database; no cut-off is given here.

How the values were obtained:
[1] = target: Cholinesterase (Equus caballus) (UniProt P81908); assay: Inhibition of equine serum BuChE at 20 uM using butyrylthiocholine iodide as substrate preincubated for 20 mins followed by substrate addition and measured after 20 mins by Ellman's method relative to control
Sequence of Cholinesterase (Equus caballus) (P81908 whole entry): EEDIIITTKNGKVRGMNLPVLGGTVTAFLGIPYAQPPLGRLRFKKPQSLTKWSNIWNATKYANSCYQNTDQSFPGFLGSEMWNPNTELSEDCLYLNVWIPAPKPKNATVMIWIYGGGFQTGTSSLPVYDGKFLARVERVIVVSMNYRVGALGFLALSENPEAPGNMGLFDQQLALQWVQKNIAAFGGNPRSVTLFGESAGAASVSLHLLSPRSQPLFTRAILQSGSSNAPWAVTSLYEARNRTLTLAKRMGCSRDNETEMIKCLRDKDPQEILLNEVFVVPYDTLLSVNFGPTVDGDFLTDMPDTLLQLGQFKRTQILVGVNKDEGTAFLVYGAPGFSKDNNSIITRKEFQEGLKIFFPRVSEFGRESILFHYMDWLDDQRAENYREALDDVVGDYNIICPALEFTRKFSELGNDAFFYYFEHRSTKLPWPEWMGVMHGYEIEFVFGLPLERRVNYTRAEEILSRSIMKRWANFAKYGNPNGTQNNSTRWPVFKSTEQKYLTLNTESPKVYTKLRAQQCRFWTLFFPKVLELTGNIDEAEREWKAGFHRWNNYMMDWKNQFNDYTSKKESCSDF

[2] = target: acetylcholinesterase (AChE) (Electrophorus electricus, UniProt O42275); assay: (§1) Inhibition of electric eel AChE at 20 uM using acetylthiocholine iodide as substrate preincubated for 20 mins followed by substrate addition and measured after 20 mins by Ellman's method relative to control; details: electric eel acetylcholinesterase enzyme, probe acetylthiocholine iodide
Sequence of acetylcholinesterase (AChE) (O42275 whole entry): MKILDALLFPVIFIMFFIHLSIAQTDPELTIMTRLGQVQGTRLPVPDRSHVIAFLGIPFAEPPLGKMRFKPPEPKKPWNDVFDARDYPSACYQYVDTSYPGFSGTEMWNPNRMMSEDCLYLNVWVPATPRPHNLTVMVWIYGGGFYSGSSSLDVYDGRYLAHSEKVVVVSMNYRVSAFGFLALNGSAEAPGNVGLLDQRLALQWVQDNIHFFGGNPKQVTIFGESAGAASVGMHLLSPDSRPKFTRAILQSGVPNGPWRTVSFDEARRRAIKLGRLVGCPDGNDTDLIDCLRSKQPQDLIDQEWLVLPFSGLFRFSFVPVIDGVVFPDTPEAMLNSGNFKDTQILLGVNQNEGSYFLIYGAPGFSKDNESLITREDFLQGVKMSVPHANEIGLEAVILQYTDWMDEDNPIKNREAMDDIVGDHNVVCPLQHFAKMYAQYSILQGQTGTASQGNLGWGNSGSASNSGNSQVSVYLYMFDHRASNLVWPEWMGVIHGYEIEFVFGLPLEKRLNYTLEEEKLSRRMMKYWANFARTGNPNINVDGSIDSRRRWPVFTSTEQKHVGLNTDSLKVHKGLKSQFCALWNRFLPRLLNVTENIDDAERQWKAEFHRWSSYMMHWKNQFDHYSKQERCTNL

Cholinesterase [3] = target: T1, Cholinesterase (Equus caballus, UniProt P81908); assay: Inhibition of equine serum BuChE using butyrylthiocholine iodide as substrate preincubated for 20 mins followed by substrate addition and measured after 20 mins by Ellman's method
T1 sequence (P81908 whole entry): as the sequence (P81908 whole entry) above

[4] = Octanol-water partition coefficient, log P of the compound at pH 7.4 after 24 hrs by shake flask method; assay type: physicochemical
Acetylcholinesterase = Acetylcholinesterase (Electrophorus electricus, UniProt O42275); assay: as §1; details: 20 min, 20 µM
Sequence of Acetylcholinesterase (O42275 whole entry): as the sequence (O42275 whole entry) above

Cholinesterase [5] = target: T1, Cholinesterase; assay: Non-competitive inhibition of equine serum BuChE using varying levels of butyrylthiocholine iodide as substrate preincubated for 20 mins followed by substrate addition and measured after 20 mins by Lineweaver-Burk plot analysis; details: read-out: Ki(app)
[6] = Cytotoxicity against rat PC12 cells assessed as cell viability up to 50 uM after 24 hrs by MTT assay relative to control
PC-12 = assay: Neuroprotection against H2O2-induced oxidative stress in rat PC12 cells assessed as cell viability at 25 uM preincubated for 3 hrs followed by H2O2 addition and measured after 24 hrs by MTT assay relative to control; assay type: functional; details: read-out: Activity
Cholinesterase [7] = target: T1, Cholinesterase; assay: Mixed-type inhibition of equine serum BuChE using varying levels of butyrylthiocholine iodide as substrate preincubated for 20 mins followed by substrate addition and measured after 20 mins by Lineweaver-Burk plot analysis; details: read-out: Ki(app)

## COc1cccc2c1OCC(=O)N1N=C(C)CC21 (centres undefined)
[1]
  inhibition: 2%
[2]
  inhibition at 20 min, 20 µM: 34%

## CCC1Oc2c(Cl)cc(Cl)cc2C2CC(C)=NN2C1=O (centres undefined)
Cholinesterase [3]
  IC50: 4.67 µM
[4]
  logD at 24 h: 1.12
[2]
  inhibition at 20 min, 20 µM: 26%

## COc1cccc2c1OC(C)C(=O)N1N=C(C)CC21 (centres undefined)
[1]
  inhibition: inactive
[2]
  inhibition at 20 min, 20 µM: 24%

## CC1=NN2C(=O)COc3c(Br)cc(Br)cc3C2C1 (centres undefined)
[1]
  inhibition: 24%
Acetylcholinesterase
  inhibition (INH): Not Active

## CC1Oc2c(Br)cc(Br)cc2C2CC(c3ccc(F)cc3)=NN2C1=O (centres undefined)
[1]
  inhibition: inactive
Acetylcholinesterase
  inhibition (INH): Not Active

## CC1=NN2C(=O)C(C)Oc3ccc(Br)cc3C2C1 (centres undefined)
[1]
  inhibition: 18%
[2]
  inhibition at 20 min, 20 µM: 23%

## CC1=NN2C(=O)COc3c(Cl)cc(Cl)cc3C2C1 (centres undefined)
[1]
  inhibition: 31%
[2]
  inhibition at 20 min, 20 µM: 25%

## CC1=NN2C(=O)COc3ccc(Br)cc3C2C1 (centres undefined)
[1]
  inhibition: inactive
[2]
  inhibition at 20 min, 20 µM: 29%

## CC1=NN2C(=O)C(C)Oc3ccc(C)cc3C2C1 (centres undefined)
[1]
  inhibition: 1%
[2]
  inhibition at 20 min, 20 µM: 22%

## CCC1Oc2c(Br)cc(Cl)cc2C2CC(C)=NN2C1=O (centres undefined)
Cholinesterase [5]
  Ki: 1.5 µM
Cholinesterase [3]
  IC50: 2.04 µM
[6]; PC12 cells
  viability at 24 h: > 90%
PC-12
  viability at 25 µM: 70%
[4]
  logD at 24 h: 1.57
Acetylcholinesterase
  inhibition (INH): Not Active

## CC1=NN2C(=O)C(C)Oc3c(Br)cc(Cl)cc3C2C1 (centres undefined)
Cholinesterase [3]
  IC50: 11.1 µM
[4]
  logD at 24 h: 2.18
Acetylcholinesterase
  inhibition (INH): Not Active

## CC1Oc2ccc(Cl)cc2C2CC(c3ccc(F)cc3)=NN2C1=O (centres undefined)
[1]
  inhibition: 17%
Acetylcholinesterase
  inhibition (INH): Not Active

## CC1Oc2c(Cl)cc(Cl)cc2C2CC(c3ccco3)=NN2C1=O (centres undefined)
[1]
  inhibition: 23%
[2]
  inhibition at 20 min, 20 µM: 28%

## CC1Oc2ccc(Br)cc2C2CC(c3ccc(F)cc3)=NN2C1=O (centres undefined)
[1]
  inhibition: 45%
Acetylcholinesterase
  inhibition (INH): Not Active

## CC1=NN2C(=O)C(C)Oc3c(Cl)cc(Cl)cc3C2C1 (centres undefined)
Cholinesterase [3]
  IC50: 5.95 µM
[4]
  logD at 24 h: 2.49
[2]
  inhibition at 20 min, 20 µM: 22%

## CC[C@@H]1Oc2c(Br)cc(Cl)cc2C2CC(C)=NN2C1=O (some centres undefined)
Cholinesterase [3]
  IC50: 20.4 µM
Acetylcholinesterase
  inhibition (INH): Not Active

## CC1=NN2C(=O)COc3ccc(Cl)cc3C2C1 (centres undefined)
[1]
  inhibition: inactive
[2]
  inhibition at 20 min, 20 µM: 2%

## CCC1Oc2ccc(Br)cc2C2CC(C)=NN2C1=O (centres undefined)
[1]
  inhibition: 39%
[4]
  logD at 24 h: 1.11
Acetylcholinesterase
  inhibition (INH): Not Active

## CC[C@H]1Oc2c(Br)cc(Cl)cc2C2CC(C)=NN2C1=O (some centres undefined)
Cholinesterase [3]
  IC50: 1.14 µM
Acetylcholinesterase
  inhibition (INH): Not Active

## CC1=NN2C(=O)COc3ccc(C)cc3C2C1 (centres undefined)
[1]
  inhibition: inactive
[2]
  inhibition at 20 min, 20 µM: 24%

## CCC1Oc2ccc(Cl)cc2C2CC(C)=NN2C1=O (centres undefined)
Cholinesterase [3]
  IC50: 12.8 µM
[4]
  logD at 24 h: 1.05
Acetylcholinesterase
  inhibition (INH): Not Active

## CC1=NN2C(=O)C(C)Oc3c(Br)cc(Br)cc3C2C1 (centres undefined)
[1]
  inhibition: 11%
Acetylcholinesterase
  inhibition (INH): Not Active

## O=C1COc2ccc(Br)cc2C2CC(c3ccco3)=NN12 (centres undefined)
[1]
  inhibition: 20%
[2]
  inhibition at 20 min, 20 µM: 25%

## CC1=NN2C(=O)COc3c(Br)cc(Cl)cc3C2C1 (centres undefined)
[1]
  inhibition: 18%
[2]
  inhibition at 20 min, 20 µM: 32%

## CC1=NN2C(=O)C(C)Oc3ccc(Cl)cc3C2C1 (centres undefined)
[1]
  inhibition: 39%
Acetylcholinesterase
  inhibition (INH): Not Active

## COc1cc2c(cc1OC)C(=O)C(CC1CCN(Cc3ccccc3)CC1)C2 (centres undefined) [DONEPEZIL]
[6]; pc-12
  viability at 24 h: > 90%

## CCC1Oc2c(Br)cc(Br)cc2C2CC(C)=NN2C1=O (centres undefined)
Cholinesterase [3]
  IC50: 2.92 µM
[4]
  logD at 24 h: 1.08
[2]
  inhibition at 20 min, 20 µM: 41%
Cholinesterase [7]
  Ki: 7.6 µM
